# Source: patent US20150335678A1, “METHOD OF ACTIVATING STEM CELLS IN AN ANIMAL AND THE USE OF CHLORINE DIOXIDE FOR PREPARING MEDICINES FOR ACTIVATING STEM CELLS IN AN ANIMAL” (priority 2012, published 2015)
# Assays:
# [1] = system: CD34-positive/CD31-positive mononuclear cells; test: CD34-positive/CD31-positive mononuclear cells in peripheral blood of lower limb DVT patients, flow cytometry; type: in vivo, human; details: before administration 0.28 ± 0.30, diluted solution 10 ml/body/day femoral artery puncture, 14 days
# Description: The subjects consisted of 14 male and 6 female lower limb DVT patients with the unilateral limb suffer from the illness, aged from 59 to 76 years old (average age: 67.2 years old). The purpose of the clinical test was explained to all subjects and their consent was obtained before conducting the clinical test.
# The first solution was a mixed solution made of sodium chlorite with the concentration of 7.47% and sodium chloride with the concentration of 1.59% with deionized water; the second solution was made of citric acid with the concentration of 16.7% with deionized water. Same volume of solutions were taken out from different vessels with different volumes and mixed up. […]
# Five ml of peripheral blood was collected from the median cubital vein of the forearm of each patient using low molecular weight heparin anticoagulant before administration (before initial administration) and on day 7 and 14 after administration, and the collected blood was immediately stored at 4° C. and measured within 6 hours after collection. […]
# CD34-positive mononuclear cells/CD31-positive mononuclear cells were isolated by double immunofluorescent using flow cytometry. […] Next, CD34/CD31-positive mononuclear cells were isolated and counted by flow cytometry. The ratio (%) of CD34/CD 31-positive mononuclear cells among the mononuclear cells was calculated according to the following formula. […]
# [2] = system: BrdU-positive cells (neural stem cells and neural progenitor cells); test: BrdU-positive and BrdU-positive/nestin-positive (proliferating) cells in the SVZ region; type: in vivo, Sprague-Dawley rats; details: for number of BrdU-positive cells in the SVZ region, proliferation (mean±SD): BrdU on day 5, 6, 12, 13, 19, 20
# Protocol: (§1) Male Sprague-Dawley rats with the age of 12 weeks and weight of 250^˜280 g were used in the experiment after acclimating for a week.
# (§2) A middle cerebral artery occlusion model was first established in compliance with the method of Longa E Z et al. (Longa E Z, et al. Reversible middle cerebral artery occlusion without craniectomy in rats. Stroke 20:84-91, 1989). More specifically, 0.36 g/kg of 10% chloral hydrate was administered intraperitoneally to rats which had been fasted for 12 hours (although given free access to water) to anesthetize the rats. Next, a midline incision was made in the neck to expose the right common carotid artery. Then, the internal carotid artery and external carotid artery were separated, the posterior carotid artery, which is a branch of the external carotid artery, and the thyroidea arteria were coagulated and severed, the external carotid artery was ligated at the branch of the lingual artery and maxillary artery, a small puncture was formed in the external carotid artery, 4-0 Nylon suture was passed through the common carotid artery from the puncture, and gradually inserted into the internal carotid artery until there was resistance. The length of the Nylon suture was about 18^˜20 mm from the branch of the common carotid artery. As a result of occluding the middle cerebral artery with Nylon suture, an ischemic state was applied for 2 hours to create a middle cerebral artery occlusion model.
# (§3) A cerebral ischemia/reperfusion injury model was established by removing the Nylon suture from the middle cerebral artery of the occlusion model and following reperfusion of blood.
# (§4) The first solution was a mixed solution made of sodium chlorite with the concentration of 7.47% and sodium chloride with the concentration of 1.59% with deionized water; the second solution was made of citric acid with the concentration of 16.7% with deionized water. Same volume of solutions were taken out from different vessels with different volumes and mixed up. Allow the solution to mix for 3-5 minutes and dilute it five times with normal saline, and then filter it with 0.22 μm filter membrane of double-deck. The solution was immediately put into injector. The solution was prepared once being used.
# (§5) Treatment group (120 rats): A cerebral ischemia/reperfusion injury model was established for the rats already. To administer chlorine dioxide solution everytime that prepared from procedure (3) through carotid artery after the second day the model has established, once a day for total ten days.
# On day 5, 6, 12, 13, 19 and 20 after the model established, 50 mg/kg of 5-bromodeoxyuridine was injected intraperitoneally into 30 rats in each group. Because BrdU is a thymidine analog, it can incorporate into the DNA of cells during the course of cell proliferation (DNA synthesis). Thus, cell proliferation can be analyzed by detecting the amount of intracellular BrdU. The rats were autopsied on day 7, 14 and 21 after the model established for preparation of frozen brain sections. The presence of BrdU-positive cells by immunochemical stain, and the presence of BrdU-positive/nestin-positive cells by double-immunofluorescent stain in the SVZ region were analyzed.
# The presence of BrdU-positive cells was analyzed using mouse anti-rat BrdU monoclonal antibody.
# The presence of BrdU-positive/nestin-positive cells was analyzed by double-immunofluorescent stain using a combination of primary antibody of goat anti-rat BrdU polyclonal antibody and secondary antibody of FITC-labeled rabbit anti-goat antibody, and a combination of primary antibody of mouse anti-rat nestin monoclonal antibody and secondary antibody of Rho-labeled rabbit anti-mouse antibody.
# (§6) BRt(%)=(Bt−St)/(Mt−St)×100
# [3] = system: BrdU-positive (migrating) cells; test: BrdU-positive (migrating) cells in the SVZ region; type: in vivo, Sprague-Dawley rats; details: for number of BrdU-positive cells in the SVZ region, migration (mean±SD): BrdU twice within 24 hours after model established
# Protocol: as §1, §2, §3, §4, §5
# Thirty Rats in each group were intraperitoneally injected twice with 50 mg/kg of BrdU within 24 hours after model established. The rats were autopsied on day 7, 14 and 21 after model established for preparation of frozen brain sections. The presence of BrdU-positive cells in the SVZ region was analyzed by immunochemical stain using mouse anti-rat BrdU monoclonal antibody.
# as §6
# localized psoriasis = test: Localized psoriasis patients, cure and recurrence vs cream control (Example 8); type: in vivo, human
# Description: The subjects consisted of 86 patients with localized psoriasis aged from 28 to 68 years old, among which 43 patients were randomly assigned to treatment group, and 43 to control group. The disease broke out continuously with more than nine months of course of disease. The purpose of the clinical test was explained to all subjects and their consent was obtained before conducting the clinical test. Treatment group: 29 male patients (74.36%), 10 female (25.64%); age (49.05±14.57); course of disease (12±9) years. Control group: 28 male patients (68.29%), 13 female patients (31.71%); age (47.05±16.25); course of disease (12±10) years.
# The solution was immediately smeared over the affected region, once a day for 10 to 15 days, and then stop administration. If it relapsed, reusing it again. […] If it relapsed, reusing it again. The due time was six months.
# The criteria for measuring the effect: Take PASI as reference.
# A. The areas: grading from 0 to 6 for the four body parts respectively: area: 0=no rash;
# B. Severity of the clinic: erythema; infiltration; scale. Grading each characteristics from 0 to 4 point; 0=no; 1=mild; 2=moderate; 3=severe; 4=extremely severe. Calculating the grades of each parts and working out the total points. The criteria of the effect (PASI decrease percentage): recovery score: ≧95%; excellent score both ≧61% and <95%; improved score both ≧20% and <60%; No effect score<20%.
# The example was enumeration data and a Chi-square test was conducted to compare the cure rate and recurrence rate of the two groups.
# [4] = after 6 months, 43 patients per group
# [5] = follow-up average 6 months, 35 treatment, 32 control patients
smiles,measurement,setting,value
"[O][Cl+][O-] [chlorine dioxide solution, chlorine dioxide]","CD34-Positive/CD31-Positive Mononuclear Cells (ratio among mononuclear cells, mean±SD)","[1]; Day 7 after administration, n=20",0.85 ± 0.51 %
same,"CD34-Positive/CD31-Positive Mononuclear Cells (ratio among mononuclear cells, mean±SD)","[1]; Day 14 after administration, n=15",1.1 ± 0.65 %
same,BRt: BrdU-positive cells (proliferation) in treatment group relative to model group = 100%,[2]; Day 7,157.4%
same,"number of BrdU-positive cells in the SVZ region, proliferation (mean±SD)","[2]; Day 7, model group 136.56 ± 9.93, sham 52.8 ± 3.85, diluted solution via carotid artery once a day, ten days",184.61 ± 12.3 No. cells/mm2
same,BRt: BrdU-positive cells (proliferation) in treatment group relative to model group = 100%,[2]; Day 14,156.9%
same,"number of BrdU-positive cells in the SVZ region, proliferation (mean±SD)","[2]; Day 14, model group 328.6 ± 12.5, sham 33.9 ± 2.95",496.2 ± 30.6 No. cells/mm2
same,BRt: BrdU-positive cells (proliferation) in treatment group relative to model group = 100%,[2]; Day 21,141.2%
same,"number of BrdU-positive cells in the SVZ region, proliferation (mean±SD)","[2]; Day 21, model group 279.9 ± 12.8, sham 23.9 ± 1.95",385.3 ± 20.9 No. cells/mm2
same,presence of proliferating nestin-positive/BrdU-positive cells in the SVZ region,"[2]; treatment group, double-immunofluorescent stain",confirmed
same,BRt: BrdU-positive (migrating) cells in treatment group relative to model group = 100%,[3]; Day 7,121.0%
same,"number of BrdU-positive cells in the SVZ region, migration (mean±SD)","[3]; Day 7, model group 136.56 ± 15.63, sham 2.85 ± 1.05, diluted solution via carotid artery once a day, ten days",164.61 ± 16.3 No. cells/mm2
same,BRt: BrdU-positive (migrating) cells in treatment group relative to model group = 100%,[3]; Day 14,144.7%
same,"number of BrdU-positive cells in the SVZ region, migration (mean±SD)","[3]; Day 14, model group 78.6 ± 8.5, sham 3.39 ± 1.35",112.2 ± 10.6 No. cells/mm2
same,BRt: BrdU-positive (migrating) cells in treatment group relative to model group = 100%,[3]; Day 21,227.1%
same,"number of BrdU-positive cells in the SVZ region, migration (mean±SD)","[3]; Day 21, model group 34.9 ± 5.48, sham 3.11 ± 1.05",75.3 ± 8.39 No. cells/mm2
same,distribution of BrdU-positive cells in SVZ region,"[3]; treatment group, in model group only on the surface of the SVZ region",widely distributed from the surface to interior of the SVZ region
same,No. effective patients,localized psoriasis; [4],0 (0) ^
same,No. ineffective patients,localized psoriasis; [4],0 (0)
same,effective patients percentage,localized psoriasis; [4],0 (0) ^ %
same,improvement Percentage,localized psoriasis; [4],4.6%
same,ineffective patients percentage,localized psoriasis; [4],0 (0) %
same,No. Cure,"localized psoriasis; after 6 months, 43 patients per group, smeared once a day 10 to 15 days, repeated on relapse, at most three treatments, test solution NaClO2 10%/NaCl 2.5% + citric acid 22% 1:1, PASI-based",41
same,Cure Percentage,"localized psoriasis; after 6 months, 43 patients per group, topical once a day 10 to 15 days, repeated on relapse, P<0.01 between groups",95.3%
same,No. non recurrence patients,localized psoriasis; [5],33
same,non recurrence patients percentage,localized psoriasis; [5],94.3%
same,No. recurrence patients,"localized psoriasis; follow-up average 6 months, 35 treatment, 32 control patients followed",2
same,recurrence patients percentage (recurrence rate),"localized psoriasis; follow-up average 6 months, 35 treatment, 32 control patients, P<0.01 between groups",5.7%
